Experimental data: the NIST ThermoML archive (doi:10.1021/acs.jced.5b00838)

Columns and labels:
[1] = 101.33 kPa, Liquid, Vibrating tube method
[2] = excess molar enthalpy (molar enthalpy of mixing); xn = mol fraction of the nth substance listed; details: 100 kPa, Liquid, isothermal titration calorimetry

CCCCCCOCC [1-ethoxyhexane]
[1]
Details | mass density [kg/m3]
288.15 K | 775.8
293.15 K | 771.47
298.15 K | 767.15
303.15 K | 762.8
308.15 K | 758.45
313.15 K | 754.06
318.15 K | 749.66
323.15 K | 745.27

CCCCCCCOC [1-methoxyheptane]
[1]
Details | mass density [kg/m3]
288.15 K | 783.89
293.15 K | 779.71
298.15 K | 775.52
303.15 K | 771.31
308.15 K | 767.09
313.15 K | 762.85
318.15 K | 758.57
323.15 K | 754.3

CCCCCOCCC [1-propoxypentane]
[1]
Details | mass density [kg/m3]
288.15 K | 773.45
293.15 K | 769.12
298.15 K | 764.78
303.15 K | 760.4
308.15 K | 756.01
313.15 K | 751.6
318.15 K | 747.19
323.15 K | 742.73

CCCOCCC(C)C [3-methyl-1-propoxybutane]
[1]
Details | mass density [kg/m3]
288.15 K | 768.79
293.15 K | 764.43
298.15 K | 760.04
303.15 K | 755.62
308.15 K | 751.22
313.15 K | 746.78
318.15 K | 742.31
323.15 K | 737.84

CCCOCCC(C)C [3-methyl-1-propoxybutane] + CC#N
[2]
Details | excess molar enthalpy [kcal/mol]
298.15 K, x2 = 0.0312 | 0.0349
298.15 K, x2 = 0.0606 | 0.0693
298.15 K, x2 = 0.0882 | 0.0976
298.15 K, x2 = 0.1142 | 0.122
298.15 K, x2 = 0.1388 | 0.144
298.15 K, x2 = 0.1841 | 0.178
298.15 K, x2 = 0.2249 | 0.204
298.15 K, x2 = 0.2618 | 0.224
298.15 K, x2 = 0.3259 | 0.253
298.15 K, x2 = 0.3798 | 0.271
298.15 K, x2 = 0.4258 | 0.281
298.15 K, x2 = 0.4654 | 0.286
298.15 K, x2 = 0.5079 | 0.289
298.15 K, x2 = 0.5442 | 0.289
298.15 K, x2 = 0.5756 | 0.287
298.15 K, x2 = 0.6028 | 0.284
298.15 K, x2 = 0.6559 | 0.274
298.15 K, x2 = 0.6774 | 0.269
298.15 K, x2 = 0.6994 | 0.262
298.15 K, x2 = 0.7186 | 0.255
298.15 K, x2 = 0.7355 | 0.248
298.15 K, x2 = 0.7504 | 0.241
298.15 K, x2 = 0.7638 | 0.234
308.15 K, x2 = 0.0302 | 0.0413
308.15 K, x2 = 0.0586 | 0.0789
308.15 K, x2 = 0.0854 | 0.11
308.15 K, x2 = 0.1107 | 0.136
308.15 K, x2 = 0.1347 | 0.158
308.15 K, x2 = 0.1789 | 0.195
308.15 K, x2 = 0.2188 | 0.223
308.15 K, x2 = 0.2551 | 0.245
308.15 K, x2 = 0.2881 | 0.262
308.15 K, x2 = 0.3183 | 0.275
308.15 K, x2 = 0.3716 | 0.293
308.15 K, x2 = 0.4172 | 0.304
308.15 K, x2 = 0.4567 | 0.31
308.15 K, x2 = 0.4992 | 0.313
308.15 K, x2 = 0.5356 | 0.313
308.15 K, x2 = 0.567 | 0.311
308.15 K, x2 = 0.5944 | 0.307
308.15 K, x2 = 0.6231 | 0.302
308.15 K, x2 = 0.648 | 0.295
308.15 K, x2 = 0.6698 | 0.289
308.15 K, x2 = 0.692 | 0.281
308.15 K, x2 = 0.7115 | 0.274
308.15 K, x2 = 0.7146 | 0.269
308.15 K, x2 = 0.7286 | 0.266
308.15 K, x2 = 0.7356 | 0.26
308.15 K, x2 = 0.7438 | 0.259
308.15 K, x2 = 0.7574 | 0.252
308.15 K, x2 = 0.7579 | 0.249
308.15 K, x2 = 0.7816 | 0.236
308.15 K, x2 = 0.8068 | 0.219
308.15 K, x2 = 0.8337 | 0.2
308.15 K, x2 = 0.8507 | 0.186
308.15 K, x2 = 0.8684 | 0.17
308.15 K, x2 = 0.8869 | 0.151
308.15 K, x2 = 0.9061 | 0.13
308.15 K, x2 = 0.9263 | 0.107
308.15 K, x2 = 0.9401 | 0.0886
308.15 K, x2 = 0.9544 | 0.0689
308.15 K, x2 = 0.9691 | 0.0474
308.15 K, x2 = 0.9843 | 0.0234
